Data published in PubChem BioAssay AID256 (DTP/NCI, 2004).
Inconclusive results and toxic doses are left out. How the source made its calls: active means survival T/C of 150% or more; inactive means T/C below 125% in these data.

Test system: CD2F1 mice, L1210 leukemia ip, survival T/C
Test: NCI In Vivo Anticancer Drug Screen. Data for tumor model L1210 Leukemia (intraperitoneal) in CD2F1 (CDF1) mice
Settings: higher = longer survival
Outline: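 Compound-dosed mice with transplantable tumor versus matched vehicle controls; endpoint ratio T/C reported.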

[1] = endpoint: mean survival time, dose: 6.25 mg/kg/injection, schedule: Q01DX009 (ip), vehicle: saline with Tween-80
[2] = endpoint: mean survival time, dose: 12.5 mg/kg/injection, schedule: Q01DX009 (ip), vehicle: saline with Tween-80
[3] = endpoint: mean survival time, dose: 25.0 mg/kg/injection, schedule: Q01DX009 (ip), vehicle: saline with Tween-80
[4] = endpoint: mean survival time, dose: 50.0 mg/kg/injection, schedule: Q01DX009 (ip), vehicle: saline with Tween-80
[5] = endpoint: mean survival time, dose: 100.0 mg/kg/injection, schedule: Q01DX001 (ip), vehicle: saline with Tween-80
[6] = endpoint: mean survival time, dose: 200.0 mg/kg/injection, schedule: Q01DX001 (ip), vehicle: saline with Tween-80
[7] = endpoint: mean survival time, dose: 100.0 mg/kg/injection, schedule: Q01DX009 (ip), vehicle: saline with Tween-80
[8] = endpoint: mean survival time, dose: 200.0 mg/kg/injection, schedule: Q01DX009 (ip), vehicle: saline with Tween-80
[9] = endpoint: mean survival time, dose: 400.0 mg/kg/injection, schedule: Q01DX009 (ip), vehicle: saline with Tween-80

Measured: T/C

Cc1nn(CCO)c(C)c1N=[N+]([O-])c1c(C)nn(CCO)c1C
inactive: endpoint: mean survival time, dose: 3.12 mg/kg/injection, schedule: Q01DX009 (ip), vehicle: Klucel (hydroxypropylcellulose) (HPC) 102 % of control | endpoint: mean survival time, dose: 3.12 mg/kg/injection, schedule: Q01DX009 (ip), vehicle: saline with Tween-80 98 % of control | endpoint: mean survival time, dose: 6.25 mg/kg/injection, schedule: Q01DX009 (ip), vehicle: Klucel (hydroxypropylcellulose) (HPC) 95 % of control | [1] 103 % of control | endpoint: mean survival time, dose: 12.5 mg/kg/injection, schedule: Q01DX009 (ip), vehicle: Klucel (hydroxypropylcellulose) (HPC) 96 % of control | [2] 104 % of control | endpoint: mean survival time, dose: 25.0 mg/kg/injection, schedule: Q01DX009 (ip), vehicle: Klucel (hydroxypropylcellulose) (HPC) 95 % of control | [3] 106 % of control | endpoint: mean survival time, dose: 50.0 mg/kg/injection, schedule: Q01DX009 (ip), vehicle: Klucel (hydroxypropylcellulose) (HPC) 101 % of control | [4] 103 % of control | endpoint: mean survival time, dose: 50.0 mg/kg/injection, schedule: Q04DX003 (ip), vehicle: Klucel (hydroxypropylcellulose) (HPC) 113 % of control | endpoint: mean survival time, dose: 100.0 mg/kg/injection, schedule: Q01DX009 (ip), vehicle: Klucel (hydroxypropylcellulose) (HPC) 95 % of control | endpoint: mean survival time, dose: 100.0 mg/kg/injection, schedule: Q04DX003 (ip), vehicle: Klucel (hydroxypropylcellulose) (HPC) 117 % of control

C=CN1CCCC1=O (tested in a mixture with another compound)
inactive: endpoint: mean survival time, dose: 100.0 mg/kg/injection, schedule: Q04DX003 (ip), vehicle: saline with Tween-80 95 % of control | endpoint: mean survival time, dose: 200.0 mg/kg/injection, schedule: Q04DX003 (ip), vehicle: saline with Tween-80 91 % of control | endpoint: mean survival time, dose: 400.0 mg/kg/injection, schedule: Q04DX003 (ip), vehicle: saline with Tween-80 98 % of control

NC(CC(=O)O)C(=O)O (centres undefined)
inactive: endpoint: mean survival time, dose: 200.0 mg/kg/injection, schedule: Q01DX009 (ip), vehicle: saline 97 % of control | endpoint: mean survival time, dose: 400.0 mg/kg/injection, schedule: Q01DX009 (ip), vehicle: saline 95 % of control | endpoint: mean survival time, dose: 800.0 mg/kg/injection, schedule: Q01DX009 (ip), vehicle: saline 98 % of control

Nc1ccc2oc(=O)c(C(=O)O)cc2c1
inactive: [5] 93 % of control | [6] 89 % of control

COc1ccc2nc3cc(Cl)ccc3c(N)c2c1
inactive: endpoint: mean survival time, dose: 2.5 mg/kg/injection, schedule: Q01DX009 (ip), vehicle: Klucel (hydroxypropylcellulose) (HPC) 110 % of control | endpoint: mean survival time, dose: 5.0 mg/kg/injection, schedule: Q01DX009 (ip), vehicle: Klucel (hydroxypropylcellulose) (HPC) 103 % of control | endpoint: mean survival time, dose: 10.0 mg/kg/injection, schedule: Q01DX009 (ip), vehicle: Klucel (hydroxypropylcellulose) (HPC) 98 % of control

Cn1c(=O)[nH]c2c(nc(-c3ccc4c(c3)OCO4)n2C)c1=O
inactive: endpoint: mean survival time, dose: 7.8 mg/kg/injection, schedule: Q01DX005 (ip), vehicle: other 100 % of control | endpoint: mean survival time, dose: 15.6 mg/kg/injection, schedule: Q01DX005 (ip), vehicle: other 95 % of control | endpoint: mean survival time, dose: 31.3 mg/kg/injection, schedule: Q01DX005 (ip), vehicle: other 100 % of control | endpoint: mean survival time, dose: 62.5 mg/kg/injection, schedule: Q01DX005 (ip), vehicle: other 103 % of control

C=C(Br)CNS(=O)(=O)c1ccc(OC)cc1
inactive: [7] 93 % of control | [8] 97 % of control | [9] 96 % of control

O=S(=O)(Oc1ccc(OS(=O)(=O)c2ccccc2)cc1)c1ccccc1
inactive: [7] 96 % of control | [8] 98 % of control | [9] 107 % of control

COc1ccc(OCCOC(=O)Nc2c(Cl)cccc2Cl)cc1
inactive: [4] 98 % of control | [7] 94 % of control | [8] 94 % of control

O=c1nc(NC2CC2)ccn1C1OC(CO)C(O)C1O (centres undefined)
inactive: endpoint: median survival time, dose: 12.5 mg/kg/injection, schedule: Q01DX005 (ip), vehicle: water 97 % of control | endpoint: median survival time, dose: 25.0 mg/kg/injection, schedule: Q01DX005 (ip), vehicle: water 106 % of control | endpoint: median survival time, dose: 50.0 mg/kg/injection, schedule: Q01DX005 (ip), vehicle: water 107 % of control | endpoint: median survival time, dose: 100.0 mg/kg/injection, schedule: Q01DX005 (ip), vehicle: water 107 % of control | endpoint: median survival time, dose: 200.0 mg/kg/injection, schedule: Q01DX005 (ip), vehicle: water 101 % of control

CCOC(=O)c1cnc(SCc2ccccc2Cl)nc1N1CC1
inactive: endpoint: mean survival time, dose: 28.05 mg/kg/injection, schedule: Q01DX009 (ip), vehicle: saline with Tween-80 115 % of control

CCCCOc1cc(C(=O)NCCN(CC)CC)c2ccccc2n1
inactive: [1] 102 % of control | [2] 108 % of control | [3] 103 % of control

CC(C)(CO)Nc1ccc([N+](=O)[O-])cc1
inactive: [5] 104 % of control | [6] 106 % of control | endpoint: mean survival time, dose: 400.0 mg/kg/injection, schedule: Q01DX001 (ip), vehicle: saline with Tween-80 107 % of control
